Data taken from US11161839B2, “2-quinolone derived inhibitors of BCL6” (Cancer Research Technology Limited, priority 2017, dated 2021).

Key:
BCL6 = BCL6 (Homo sapiens (Human), UniProt P41182); experiment: assays described in the Examples section (not specified which); details: tested compounds outside desired/preferred activity
Description: DC50 values (compound concentration at which 50% of endogenous BCL6 protein is degraded) were determined in SUDHL-4 cells (American Type Culture Collection) in an immunofluorescence-based assay using an InCell2200 high content imaging system (GE Healthcare). Briefly, 40 μL of lymphoma suspension cells cultured in RPMI 1640-10% FBS (Sigma-Aldrich or PAN Biotech UK Ltd) were platted on fibronectin (Sigma catalogue F1141)-coated 384 well Cell Carrier Ultra plate (Perkin Elmer catalogue 6057300) at 1.2 104 cells/well. After 20 hours cell culture at 37° C./C02 incubator, compounds were dispensed in the cell culture plate using ECHO550 acoustic dispenser (Labcyte, Inc.), as 8 point-concentration response (ranging from 5 nM to 10 μM) in 0.67% final DMSO concentration. Cells were incubated with compound for 2 hours at 37° C./C02 incubator followed by fixation in 4.5% formaldehyde (37% formaldehyde solution, Sigma catalogue F8775) at room temperature for 15 min. After fixing, cells were washed in 1×TBS (Tris Buffer Saline) using a Power Washer 384 (Tecan Group Ltd). Blocking and cell permeabilisation were performed by incubating the fixed cells for 1 hour at room temperature in 1×TBS, 5% BSA, 1% Triton X100, followed by three washes on PW384 plate washer. Primary and secondary antibodies were prepared in 1×TBS, 1% BSA, 0.2% Triton X100. BCL6 expression was detected by incubating the cells for 1 h30 with BCL6 rabbit polyclonal antibody (Sigma Catalogue HPA004899) at 1:250, 0.8 μg/ml, followed by 1 hour in chicken anti-Rabbit Alexa 488 conjugated antibody (Life Technology) at 1:500. After incubation in each antibody, cells were washes four times in 1×TBS-0.05% tween on PW384 plate washer. Cells were finally incubated for 60 min with nuclear staining RedDot2 dye (Biotium) at 0.5× the stock concentration in 1×TBS. BCL6 expression in the absence or presence of compound was detected on InCell2200 with 20× objective and quantified on InCell Analyser 3.7.2 workstation (GE Healthcare). The % response at each concentration was calculated by normalising BCL6 expression in the presence of compound to the appropriate high (DMSO) and low (DMSO with 7 μM CCT369260) controls.
(§1) The volume of medium containing 2000 cells in the control well was calculated and this volume of cells was transferred from every well of the assay plates to the corresponding well of the fresh plates containing compound. After 14 days, CellTiter Glo reagent (Promega) was added to the medium in each well of the assay plate at a ratio of 1:2, mixed on a plate shaker, then incubated at room temperature for 10 minutes. Luminescence was measured using an Envision plate reader (Perkin Elmer) and the relative luminescence at each compound concentration, compared to DMSO alone, was calculated. IC50 were determined using a 4-parameter curve fit in Dotmatics (Bishops Stortford, UK).

[1] = target: human BCL6 BTB domain (Trx-6xHis-BCL6) (Homo sapiens (Human), UniProt P41182); experiment: HTRF in vitro assay (BCL6 BTB domain / BCOR-AF633 peptide); assay type: binding; details: further generated data (Table 1b), 1 nM Trx-6xHis-BCL6, 0.5 nM anti-6xHis-Terbium cryptate; for IC50: read-out: HTRF pIC50 (converted)
[2] = target: BCL6-NCOR2(SMRT) corepressor protein-protein interaction (Homo sapiens (Human), UniProt P41182); experiment: NanoBRET cell assay in transfected HEK293T cells; assay type: cell-based; details: further generated data (Table 2b); HEK293T cells, 6 hr; read-out: NanoBRET cell pIC50 (converted)
SU-DHL-4 cells = experiment: 14-day cell proliferation assay (CellTiter Glo); assay type: cell-based; details: Homo sapiens, SU-DHL4 cells, 14 days
Description: as §1

| SMILES | activity in the assays described in the Examples section (BCL6) | HTRF pIC50 [1] | IC50 [2] [nM] | GI50 (SU-DHL-4 cells) [nM] | IC50 [1] [nM] |
| --- | --- | --- | --- | --- | --- |
| CC(CN(C)C)Nc1cc(=O)n(C)c2ccc(Nc3ccnc(Cl)c3C#N)cc12 (stereo not drawn) [2-chloro-4-((4-((1-(dimethylamino)propan-2-yl)amino)-1-methyl-2-oxo-1,2-dihydroquinolin-6-yl)amino)nicotinonitrile] | did not exhibit the desired activity | – | – | – | – |
| CC(Nc1cc(=O)n(C)c2ccc(Nc3ccnc(Cl)c3C#N)cc12)c1ncc(N2CCOC(C(F)(F)F)C2)cn1 (stereo not drawn) [Example 10d, 2-chloro-4-((1-methyl-2-oxo-4-((1-(5-(2-(trifluoromethyl)morpholino)pyrimidin-2-yl)ethyl)amino)-1,2-dihydroquinolin-6-yl)amino)nicotinonitrile] | – | 7.33 | 589 | 1480 | – |
| Cc1cc(C)n(-c2ncc(Cl)c(Nc3ccc4c(c3)c(N[C@H](C)C3CC3)cc(=O)n4C)n2)n1 [Example 14c, (R)-6-((5-chloro-2-(3,5-dimethyl-1H-pyrazol-1-yl)pyrimidin-4-yl)amino)-4-((1-cyclopropylethyl)amino)-1-methylquinolin-2(1H)-one] | – | 6.54 | 891 | 760 | – |
| CC(Nc1cc(=O)n(C)c2ccc(Nc3ccnc(Cl)c3C#N)cc12)c1ncc(C2CCOCC2)cn1 (stereo not drawn) [Example 10w, 2-chloro-4-[[1-methyl-2-oxo-4-[1-(5-tetrahydropyran-4-ylpyrimidin-2-yl)ethylamino]-6-quinolyl]amino]pyridine-3-carbonitrile] | – | 7.58 | 912 | 1340 | – |
| CN1CCC(Nc2cc(=O)n(C)c3ccc(Nc4ccnc(Cl)c4C#N)cc23)C1=O (stereo not drawn) [2-chloro-4-((1-methyl-4-((1-methyl-2-oxopyrrolidin-3-yl)amino)-2-oxo-1,2-dihydroquinolin-6-yl)amino)nicotinonitrile] | not to exhibit the preferred activity | – | – | – | – |
| CC(Nc1cc(=O)n(C)c2ccc(Nc3ccnc(Cl)c3C#N)cc12)c1ncc(-c2cnn(C)c2)cn1 (stereo not drawn) [Example 10c, 2-chloro-4-((1-methyl-4-((1-(5-(1-methyl-1H-pyrazol-4-yl)pyrimidin-2-yl)ethyl)amino)-2-oxo-1,2-dihydroquinolin-6-yl)amino)nicotinonitrile] | – | 7.45 | 490 | 460 | – |
| CC(Nc1cc(=O)n(C)c2ccc(Nc3ccnc(Cl)c3C#N)cc12)c1ncc(C2CC2)cn1 (stereo not drawn) [Example 10e, 2-chloro-4-((4-((1-(5-cyclopropylpyrimidin-2-yl)ethyl)amino)-1-methyl-2-oxo-1,2-dihydroquinolin-6-yl)amino)nicotinonitrile] | – | – | – | 1720 | – |
| CC(Nc1nc(=O)n(C)c2ccc(Nc3nc(N4C[C@@H](C)O[C@@H](C)C4)ncc3Cl)cc12)c1ncccn1 (stereo partly drawn) [Example 26e, 6-[[5-chloro-2-[(2R,6S)-2,6-dimethylmorpholin-4-yl]pyrimidin-4-yl]amino)-1-methyl-4-(1-pyrimidin-2-ylethylamino)quinazolin-2-one] | – | 7.03 | 2880 | – | – |
| COC1CCC1Nc1cc(=O)n(C)c2ccc(Nc3ccnc(Cl)c3C#N)cc12 (racemic) [Example 22a, rac-2-chloro-4-((4-(((1R,2S)-2-methoxycyclobutyl)amino)-1-methyl-2-oxo-1,2-dihydroquinolin-6-yl)amino)nicotinonitrile or rac-2-chloro-4-((4-(((1R,2R)-2-methoxycyclobutyl)amino)-1-methyl-2-oxo-1,2-dihydroquinolin-6-yl)amino)nicotinonitrile] | – | – | 2340 | – | 251 |
| CN(C)C(=O)C1CCN(c2ncc(Cl)c(Nc3ccc4c(c3)c(NC3(C#N)CC3)cc(=O)n4C)n2)CC1 [Example 16b, 1-(5-chloro-4-((4-((1-cyanocyclopropyl)amino)-1-methyl-2-oxo-1,2-dihydroquinolin-6-yl)amino)pyrimidin-2-y1)-N,N-dimethylpiperidine-4-carboxamide] | – | 6.37 | 5010 | – | – |
| COC[C@@H]1CCCN1C(=O)c1cc(Nc2ccc3c(c2)c(NC(C)(C)c2ncccn2)cc(=O)n3C)c(C#N)c(Cl)n1 [Example 8e] | – | – | 676 | – | 28.2 |

The next lines start with the values.

| activity in the assays described in the Examples section (BCL6) | HTRF pIC50 [1] | IC50 [2] [nM] | GI50 (SU-DHL-4 cells) [nM] | IC50 [1] [nM] | SMILES |
| --- | --- | --- | --- | --- | --- |
| not to exhibit the preferred activity | – | – | – | – | CC(Nc1cc(=O)n(C)c2ccc(Nc3nc(N4C[C@H](C)C[C@H](C)C4)nc(C(F)(F)F)c3Cl)cc12)c1ncccn1 (stereo partly drawn) [6-((5-chloro-2-((3S,5R)-3,5-dimethylpiperidin-1-yl)-6-(trifluoromethyl)pyrimidin-4-yl)amino)-1-methyl-4-((1-(pyrimidin-2-yl)ethyl)amino)quinolin-2(1H)-one] |
| – | 6.99 | 676 | 440 | – | C[C@@H]1CN(c2ncc(Cl)c(Nc3ccc4c(c3)c(NC(C)(C)c3ncccn3)nc(=O)n4C)n2)C[C@H](C)O1 [Example 26f, 6-[[5-chloro-2-[(2R,6S)-2,6-dimethylmorpholin-4-yl]pyrimidin-4-yl]amino-1-methyl-4-[(1-methyl-1-pyrimidin-2-yl)ethyl)amino]quinazolin-2-one:formic acid (1:1)] |
| – | 7.50 | 240 | 450 | – | Cn1c(=O)cc(NC(C)(C)c2ncccn2)c2cc(Nc3cc(C(=O)N4CC(C(F)(F)F)C4)nc(Cl)c3C#N)ccc21 [Example 8d, 2-chloro-4-((1-methyl-2-oxo-4-((2-(pyrimidin-2-yl)propan-2-yl)amino)-1,2-dihydroquinolin-6-yl)amino)-6-(3-(trifluoromethyl)azetidine-1-carbonyl)nicotinonitrile] |
| – | 6.73 | – | 110 | – | C[C@@H]1CN(c2ncc(Cl)c(Nc3ccc4c(c3)c(NC(C)(C)c3ncccn3)nc(=O)n4C)n2)C[C@H](C)C1(F)F [Example 25a, 6-((5-chloro-2-((3R,5S)-4,4-difluoro-3,5-dimethylpiperidin-1-yl)pyrimidin-4-yl)amino)-1-methyl-4-((2-(pyrimidin-2-yl)propan-2-yl)amino)quinazolin-2(1H)-one] |
| – | 6.81 | 1380 | 2130 | – | Cn1c(=O)cc(NC(C)(C)c2ncccn2)c2cc(Nc3ccnc(Cl)c3Cl)ccc21 [Example 6b, 6-((2,3-dichloropyridin-4-yl)amino)-1-methyl-4-((2-(pyrimidin-2-yl)propan-2-yl)amino)quinolin-2(1H)-one] |
| – | – | – | 340 | 251 | CC(Nc1nc(=O)n(C)c2ccc(Nc3nc(N4C[C@@H](C)C(F)(F)[C@@H](C)C4)ncc3Cl)cc12)c1ncccn1 (mixture of isomers) [Example 12h, rac-6-((5-chloro-2-((3R,5S)-4,4-difluoro-3,5-dimethylpiperidin-1-yl)pyrimidin-4-yl)amino)-1-methyl-4-((1-(pyrimidin-2-yl)ethyl)amino)quinazolin-2(1H)-one] |
| – | 7.39 | 490 | 290 | – | CC(Nc1cc(=O)n(C)c2ccc(Nc3ccnc(Cl)c3C#N)cc12)c1ncc(N2C[C@@H](C)O[C@@H](C)C2)cn1 (stereo partly drawn) [Example 10b, 2-chloro-4-((4-((1-(5-((2S,6R)-2,6-dimethylmorpholino)pyrimidin-2-yl)ethyl)amino)-1-methyl-2-oxo-1,2-dihydroquinolin-6-yl)amino)nicotinonitrile] |
| – | 6.66 | 3890 | – | – | Cc1nc(-n2ccc(C(F)(F)F)n2)nc(Nc2ccc3c(c2)c(NC(C)(C)c2ncccn2)cc(=O)n3C)c1Cl [Example 14a, 6-((5-chloro-6-methyl-2-(3-(trifluoromethyl)-1H-pyrazol-1-yl)pyrimidin-4-yl)amino)-1-methyl-4-((2-(pyrimidin-2-yl)propan-2-yl)amino)quinolin-2(1H)-one] |
